Test results from patent publication US5852028A, “Pyrimidine carboxylates and related compounds and methods for treating inflammatory conditions” (Signal Pharmaceuticals, Inc., priority 1995, dated 1998).
pIC50: −log10 of the molar value.

Test system: NFκB/AP-1
Assay: NFκB and AP-1 luciferase reporter gene assays in PMA/PHA-stimulated Jurkat T-cells
Assay type: cell-based
Details: Homo sapiens, stable Jurkat T-cells, PMA/PHA stimulation, 5 h
Excerpt: Stable human Jurkat T-cells containing an NFκB binding site (from the MHC promoter) fused to a minimal SV-40 promoter driving luciferase expression were used in this experiment. Cells were split to 3×10^5 cells/mL every 2-3 days (cell concentration should not exceed 1×10^6 cells/mL to keep the cells proliferating in log phase). These cells were counted, resuspended in fresh medium containing 10% Serum-Plus at a density of 1×10^6 cells/mL and plated in 96 well round bottom plates (200 μ.LAMBDA. per well) 18 hours prior to starting the experiment.
Compounds of this invention, dissolved in dimethyl sulfoxide (3.3, 0.33 and 0.03 μg/mL), were then added to the 96 well plates containing the cells and the plates were incubated for 0.5 h at 37° C. Then 50 ng/mL of phorbol 12-myristate-13-acetate (PMA) and 1 μg/mL of phytohemagglutinin (PHA) were added to each well and the cells were incubated for an additional 5 h at 37° C. The plates were centrifuged at 2200 RPM for 3 minutes at room temperature and then the medium was removed. To each well was added 60 μL of cell lysis buffer and the plates were left at room temperature for 0.25 h. Then 40 μL of each cell extract was transferred to a black 96 well plate and 50 μL of luciferase substrate buffer was added. Luminescence was immediately measured using a Packard TopCount.
For AP-1, the assay was run as described above for NFκB except stable Jurkat T-cells were used that contained a the -73 collagenase promoter driving luciferase expression. In addition, the concentration of PMA used was 5 ng/mL.

Row | pIC50 | Compound
1 | 7.05 | CCOC(=O)c1cnc(NN2C(=O)C=C(C)C2=O)nc1C(F)(F)C(F)(F)F [Example 48, Ethyl 2-[N-(1'-aminocitraconamido)]-4-pentafluoroethylpyrimidine-5-carboxylate]
2 | 6.15 | CCOC(=O)c1cnc(NN2C(=O)C=C(C)C2=O)nc1C(F)(F)F [Example 20, Ethyl 2-[N-(1'-aminocitraconamide)]-4-trifluoromethylpyrimidine-5-carboxylate]
3 | 5.30 | CCOC(=O)c1cnc(NN2C(=O)C(C)=C(C)C2=O)nc1C(F)(F)F [Example 41, Ethyl 2-[N-(1'-amino-3',4'-dimethylmaleimide)]-4-trifluoromethylpyrimidine-5-carboxylate]
4 | 5.52 | CCOC(=O)c1cnc(NN2C(=O)C=C(c3ccccc3)C2=O)nc1C(F)(F)F [Example 40, Ethyl 2-[N-(1'-amino-3'-phenylmaleimide)]-4-trifluoromethylpyrimidine-5-carboxylate]
5 | 5.00 to 5.30 | CC(=O)c1cnc(NN2C(=O)C=C(C)C2=O)nc1C(F)(F)F [Example 23, 5-acetyl-2-[N-(1'-aminocitraconamide)]-4-trifluoromethylpyrimidine]
6 | 5.70 | CCOC(=O)c1cnc(NN2C(=O)C=C(C)C2=O)nc1Cc1ccccc1 [Example 52, Ethyl 2-[N-(1'-aminocitraconamido)]-4-benzylpyrimidine-5-carboxylate]
7 | 6.00 | CCOC(=O)c1cnc(NN2C(=O)C=C(C)C2=O)nc1C(=O)OCC [Example 64, Diethyl 2-[N-(1'-aminocitraconamido)]-pyrimidine-4,5-dicarboxylate]
8 | 6.52 | CCOC(=O)c1cnc(N(C)N2C(=O)C=C(C)C2=O)nc1C(F)(F)F [Example 42, Ethyl 2-[N-(1'-aminocitraconamide)-N-methyl]-4-trifluoromethylpyrimidine-5-carboxylate]
9 | 5.40 | CCOC(=O)c1cnc(NN2C(=O)C=C(C)C2=O)nc1C [Example 46, Ethyl 2-[N-(1'-aminocitraconamido)]-4-methylpyrimidine-5-carboxylate]
10 | 6.82 | CCCc1nc(NN2C(=O)C=C(C)C2=O)ncc1C(=O)OCC [Example 37, Ethyl 2-[N-(1'-aminocitraconamide)]-4-propylpyrimidine-5-carboxylate]
11 | 4.52 to 5.00 | CCOC(=O)c1cnc(C(F)(F)F)nc1NN1C(=O)C(C)=C(C)C1=O [Example 44, Ethyl 4-[N-(1'-amino-3',4'-dimethylmaleimido)]-2-trifluoromethylpyrimidine-5-carboxylate]
12 | 6.00 | CCOC(=O)c1cnc(NN2C(=O)C=C(C)C2=O)nc1-c1ccccc1 [Example 50, Ethyl 2-[N-(1'-aminocitraconamido)]-4-phenylpyrimidine-5-carboxylate]
13 | 6.82 | CCOC(=O)c1cnc(NN2C(=O)C=C(C)C2=O)nc1CC [Example 36, Ethyl 2-[N-(1'-aminocitraconamide)]-4-ethylpyrimidine-5-carboxylate]
14 | 7.40 | CCOC(=O)c1cnc(NN2C(=O)C=C(C)C2=O)nc1-c1cccs1 [Example 38, Ethyl 2-[N-(1'-aminocitraconamide)]-4-(2"-thiophenyl)pyrimidine-5-carboxylate]
15 | 6.30 | CCOC(=O)c1cnc(C(F)(F)F)nc1NN1C(=O)C=C(C)C1=O [Example 21, Ethyl 4-[N-(1'-aminocitraconamide)]-2-trifluoromethylpyrimidine-5-carboxylate]

Test system: mice
Assay: not given
Details: Morris et al., 1990; cited from earlier work

Row | Compound | activity in contact sensitivity model (delayed-type hypersensitivity to oxazolone)
16 | O=P1(N(CCCl)CCCl)NCCCO1 (centres unmarked) [cyclophosphamide] | active

Test system: C3H mice
Assay: not given
Details: Morris et al., 1990; cited from earlier work

Row | Compound | activity in graft vs. host model (PLN assay)
17 | O=P1(N(CCCl)CCCl)NCCCO1 (centres unmarked) [cyclophosphamide] | active
